Experimental data reported in US20260258064A1 (SIRONAX LTD., priority 2023, published 2026).
pIC50: −log10 of the molar value.

Target: T1, SARM1 (50-724) (Homo sapiens, UniProt Q6SZW1)
T1 construct: Purified SARM1 (50-724) with a final concentration of 2 nM was pre-incubated with a test compound
T1 sequence (Q6SZW1 50-724): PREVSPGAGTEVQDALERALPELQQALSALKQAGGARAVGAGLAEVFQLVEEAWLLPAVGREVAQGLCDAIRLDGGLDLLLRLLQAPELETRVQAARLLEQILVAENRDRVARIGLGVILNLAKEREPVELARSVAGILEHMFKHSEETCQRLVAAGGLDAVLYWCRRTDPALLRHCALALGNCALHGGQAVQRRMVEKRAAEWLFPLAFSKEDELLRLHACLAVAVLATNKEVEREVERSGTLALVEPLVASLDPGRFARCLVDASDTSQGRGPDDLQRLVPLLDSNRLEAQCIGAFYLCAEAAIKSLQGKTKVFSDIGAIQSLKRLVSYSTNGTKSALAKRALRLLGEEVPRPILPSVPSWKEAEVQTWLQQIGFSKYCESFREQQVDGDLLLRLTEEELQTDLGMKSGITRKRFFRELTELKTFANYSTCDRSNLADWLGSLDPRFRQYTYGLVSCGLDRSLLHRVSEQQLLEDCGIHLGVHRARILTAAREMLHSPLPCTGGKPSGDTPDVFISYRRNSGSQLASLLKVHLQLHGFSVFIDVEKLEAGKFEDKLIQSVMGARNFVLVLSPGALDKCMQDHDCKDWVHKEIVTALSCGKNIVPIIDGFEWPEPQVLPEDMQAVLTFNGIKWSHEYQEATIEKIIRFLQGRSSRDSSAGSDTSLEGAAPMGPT
Experiment: SARM1 (50-724) enzymatic assay (LC-MS/MS)
Assay type: biochemical
Details: Purified SARM1 (50-724) 2 nM, NMN as activator, NAD+ as substrate, 1 h at room temperature, read-out: IC50 (SARM1 inhibitory activity)
Outline: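 Human SARM1 (50-724), 2 nM, pre-incubated 15 min at room temperature with compound in Dulbecco's PBS. Reaction started with 200 µM NMN (activator) plus […] NAD^+ substrate, run 1 h at room temperature, quenched with 70% acetonitrile. Turnover quantified by LC-MS/MS; IC50 reported.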

Row | SMILES | pIC50
1 | Fc1cc(C2(F)CC2)cc2nc(-c3nncn3-c3cnccc3C(F)(F)F)[nH]c12 [Compound 285, 7-fluoro-5-(1-fluorocyclopropyl)-2-(4-(4-(trifluoromethyl)pyridin-3-yl)-4H-1,2,4-triazol-3-yl)-1H-benzo[d]imidazole] | ≥ 7.00
2 | C=C(CF)c1cc(F)c2[nH]c(-c3nncn3-c3cnccc3C(F)(F)F)nc2c1 [Compound 286, 7-fluoro-5-(3-fluoroprop-1-en-2-yl)-2-(4-(4-(trifluoromethyl)pyridin-3-yl)-4H-1,2,4-triazol-3-yl)-1H-benzo[d]imidazole] | ≥ 7.00
3 | FC(F)(F)c1cnc2[nH]c(-c3nncn3-c3cnccc3C(F)(F)F)cc2c1 [Compound 287, 5-(trifluoromethyl)-2-(4-(4-(trifluoromethyl)pyridin-3-yl)-4H-1,2,4-triazol-3-yl)-1H-pyrrolo[2,3-b]pyridine] | ≥ 7.00
4 | CS(=O)(=O)Cc1cccc(OC(F)(F)F)c1-n1cnnc1-c1nc2cc(C(F)(F)F)ccc2[nH]1 [Compound 289, 2-(4-(2-((methylsulfonyl)methyl)-6-(trifluoromethoxy)phenyl)-4H-1,2,4-triazol-3-yl)-5-(trifluoromethyl)-1H-benzo[d]imidazole] | ≥ 7.00
5 | CC1(c2cc(F)c3[nH]c(-c4nncn4-c4cnccc4C(F)(F)F)nc3c2)COC1 [Compound 290, 7-fluoro-5-(3-methyloxetan-3-yl)-2-(4-(4-(trifluoromethyl)pyridin-3-yl)-4H-1,2,4-triazol-3-yl)-1H-benzo[d]imidazole] | ≥ 7.00
6 | FC(F)(F)c1ccc2[nH]c(-c3nncn3-c3cnccc3C(F)(F)F)cc2n1 [Compound 292, 5-(trifluoromethyl)-2-(4-(4-(trifluoromethyl)pyridin-3-yl)-4H-1,2,4-triazol-3-yl)-1H-pyrrolo[3,2-b]pyridine] | ≥ 7.00
7 | Fc1cc(OC(F)F)cc2nc(-c3nncn3-c3cnccc3C(F)(F)F)[nH]c12 [Compound 293, 5-(difluoromethoxy)-7-fluoro-2-(4-(4-(trifluoromethyl)pyridin-3-yl)-4H-1,2,4-triazol-3-yl)-1H-benzo[d]imidazole] | ≥ 7.00
8 | FC(F)(F)Oc1cnc(C2CCO2)cc1-n1cnnc1-c1nc2cc(C(F)(F)F)ccc2[nH]1 (stereo not drawn) [Compound 294, 2-(4-(2-(oxetan-2-yl)-5-(trifluoromethoxy)pyridin-4-yl)-4H-1,2,4-triazol-3-yl)-5-(trifluoromethyl)-1H-benzo[d]imidazole] | ≥ 7.00
9 | OCCc1cccc(OC(F)(F)F)c1-n1cnnc1-c1nc2cc(C(F)(F)F)ccc2[nH]1 [Compound 295, 2-(3-(trifluoromethoxy)-2-(3-(5-(trifluoromethyl)-1H-benzo[d]imidazol-2-yl)-4H-1,2,4-triazol-4-yl)phenyl)ethan-1-ol] | ≥ 7.00
10 | FC(F)(F)c1ccc2[nH]c(-c3ccnnc3-c3cccc(Cl)c3Cl)nc2c1 [Compound 296, 2-(3-(2,3-dichlorophenyl)pyridazin-4-yl)-5-(trifluoromethyl)-1H-benzo[d]imidazole] | 6.30 to 7.00
11 | CN(C)c1cc(F)c2[nH]c(-c3nncn3-c3cnccc3C(F)(F)F)nc2c1 [Compound 297, 7-fluoro-N,N-dimethyl-2-(4-(4-(trifluoromethyl)pyridin-3-yl)-4H-1,2,4-triazol-3-yl)-1H-benzo[d]imidazol-5-amine] | ≥ 7.00
12 | Fc1cc(C2CC2(F)F)cc2nc(-c3nncn3-c3cnccc3C(F)(F)F)[nH]c12 (stereo not drawn) [Compound 298, 5-(2,2-difluorocyclopropyl)-7-fluoro-2-(4-(4-(trifluoromethyl)pyridin-3-yl)-4H-1,2,4-triazol-3-yl)-1H-benzo[d]imidazole] | ≥ 7.00
13 | FC(F)(F)c1cc2cc(-c3nncn3-c3cnccc3C(F)(F)F)[nH]c2cn1 [Compound 299, 5-(trifluoromethyl)-2-(4-(4-(trifluoromethyl)pyridin-3-yl)-4H-1,2,4-triazol-3-yl)-1H-pyrrolo[2,3-c]pyridine] | < 6.00
14 | Fc1c(C2CC2)cc(F)c2[nH]c(-c3nncn3-c3cnccc3C(F)(F)F)nc12 [Compound 300, 5-cyclopropyl-4,7-difluoro-2-(4-(4-(trifluoromethyl)pyridin-3-yl)-4H-1,2,4-triazol-3-yl)-1H-benzo[d]imidazole] | ≥ 7.00
15 | Fc1cc(N2CCC2)cc2nc(-c3nncn3-c3cnccc3C(F)(F)F)[nH]c12 [Compound 301, 5-(azetidin-1-yl)-7-fluoro-2-(4-(4-(trifluoromethyl)pyridin-3-yl)-4H-1,2,4-triazol-3-yl)-1H-benzo[d]imidazole] | 6.30 to 7.00
16 | FC(F)(F)c1ccc2[nH]c(-c3nnccc3-c3ccncc3C(F)(F)F)nc2c1 [Compound 302, 5-(Trifluoromethyl)-2-(4-(3-(trifluoromethyl)pyridin-4-yl)pyridazin-3-yl)-1H-benzo[d]imidazole] | 6.30 to 7.00
17 | Fc1cc(C(F)(F)F)cc2nc(-c3nnccc3-c3cnccc3C(F)(F)F)[nH]c12 [Compound 303, 7-Fluoro-5-(trifluoromethyl)-2-(4-(4-(trifluoromethyl)pyridin-3-yl)pyridazin-3-yl)-1H-benzo[d]imidazole] | ≥ 7.00
18 | FC(F)(F)c1ccc2[nH]c(-c3nccnc3-c3cccc(Cl)c3Cl)nc2c1 [Compound 304, 2-(3-(2,3-dichlorophenyl)pyrazin-2-yl)-5-(trifluoromethyl)-1H-benzo[d]imidazole] | 6.00 to 6.30
19 | FC(F)(F)c1ccc2[nH]c(-c3cccn3-c3nnccc3C(F)(F)F)nc2c1 [Compound 305, 5-(Trifluoromethyl)-2-(1-(4-(trifluoromethyl)pyridazin-3-yl)-1H-pyrrol-2-yl)-1H-benzo[d]imidazole] | ≥ 7.00
20 | FC(F)c1nnc(-c2nc3cc(C(F)(F)F)ccc3[nH]2)n1-c1cnccc1C(F)(F)F [Compound 306, 2-(5-(difluoromethyl)-4-(4-(trifluoromethyl)pyridin-3-yl)-4H-1,2,4-triazol-3-yl)-5-(trifluoromethyl)-1H-benzo[d]imidazole] | ≥ 7.00
21 | FC(F)(F)c1ccc2[nH]c(-c3nncnc3-c3cccc(Cl)c3Cl)nc2c1 [Compound 307, 2-(5-(2,3-dichlorophenyl)-1,2,4-triazin-6-yl)-5-(trifluoromethyl)-1H-benzo[d]imidazole] | ≥ 7.00
22 | CCn1ccc2[nH]c(-c3nncn3-c3cccc(F)c3Cl)cc2c1=O [Compound 308, 2-(4-(2-chloro-3-fluorophenyl)-4H-1,2,4-triazol-3-yl)-5-ethyl-1,5-dihydro-4H-pyrrolo[3,2-c]pyridin-4-one] | 6.30 to 7.00
23 | FC(F)(F)c1ccc2[nH]c(-c3nncn3-c3c(C(F)(F)F)ccn4nccc34)nc2c1 [Compound 309, 5-(trifluoromethyl)-2-(4-(5-(trifluoromethyl)pyrazolo[1,5-a]pyridin-4-yl)-4H-1,2,4-triazol-3-yl)-1H-benzo[d]imidazole] | ≥ 7.00
24 | FC(F)(F)c1ccc2[nH]c(-c3ncncc3-c3cccc(Cl)c3Cl)nc2c1 [Compound 310, 2-(5-(2,3-dichlorophenyl)pyrimidin-4-yl)-5-(trifluoromethyl)-1H-benzo[d]imidazole] | < 6.00
25 | FC(F)(F)c1ccc2[nH]c(-c3nncn3-c3cn4nccc4cc3C(F)(F)F)nc2c1 [Compound 311, 5-(trifluoromethyl)-2-(4-(5-(trifluoromethyl)pyrazolo[1,5-a]pyridin-6-yl)-4H-1,2,4-triazol-3-yl)-1H-benzo[d]imidazole] | 6.30 to 7.00
26 | FC(F)(F)c1ccc2[nH]c(-c3cccn3-c3nccnc3C(F)(F)F)nc2c1 [Compound 313] | 6.00 to 6.30
27 | Fc1c(C2CC(F)(F)C2)ccc2[nH]c(-c3nncn3-c3cnccc3C(F)(F)F)nc12 [Compound 314, 5-(3,3-difluorocyclobutyl)-4-fluoro-2-(4-(4-(trifluoromethyl)pyridin-3-yl)-4H-1,2,4-triazol-3-yl)-1H-benzo[d]imidazole] | ≥ 7.00
28 | FC(F)(F)c1ccc2[nH]c(-n3nncc3-c3cccc(Cl)c3Cl)nc2c1 [Compound 315, 2-(5-(2,3-dichlorophenyl)-1H-1,2,3-triazol-1-yl)-5-(trifluoromethyl)-1H-benzo[d]imidazole] | ≥ 7.00
29 | C=C(F)Cc1cc(F)c2[nH]c(-c3nncn3-c3cnccc3C(F)(F)F)nc2c1 [Compound 316, 7-fluoro-5-(2-fluoroallyl)-2-(4-(4-(trifluoromethyl)pyridin-3-yl)-4H-1,2,4-triazol-3-yl)-1H-benzo[d]imidazole] | ≥ 7.00
30 | Fc1cc(C(F)(F)F)cc2nc(-c3nnc(CC(F)F)n3-c3cnccc3C(F)(F)F)[nH]c12 [Compound 317, 2-(5-(2,2-difluoroethyl)-4-(4-(trifluoromethyl)pyridin-3-yl)-4H-1,2,4-triazol-3-yl)-7-fluoro-5-(trifluoromethyl)-1H-benzo[d]imidazole] | ≥ 7.00
